# Assay results as given in patent publication US20200071316A1, “ACTIVATORS OF THE RETINOIC ACID INDUCIBLE GENE "RIG-I" PATHWAY AND METHODS OF USE THEREOF” (Kineta Immuno-Oncology LLC, priority 2018, published 2020).
# Columns and labels:
# [1] = tested on: IRF3 signaling pathway (IRF-inducible ISG54 promotor) in THP1-Lucia ISG cells; assay: THP1-Lucia ISG reporter assay: induction of IRF3-dependent luciferase activity; type: cell-based; settings: Homo sapiens, 10 μM compound, PMA-differentiated cells, 18 h after stimulation, read-out: THP1 ISG: fold increase of IRF3-dependent luciferase activity over background
# In short: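 PMA-differentiated (100 ng/ml) reporter cells, parental and IRF3−/−, stimulated with compounds at 5–20 μM (mostly 10 μM). Secreted luciferase measured 18 h later. Scored as fold increase over untreated background in bands from "−" (<2.4-fold) to "+++++" (≥40-fold).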
# [2] = tested on: THP1-Lucia ISG IRF3 −/− cells; assay: IRF3-deficient THP1-Lucia ISG IRF3 −/− reporter assay (counter-screen); type: cell-based; settings: Homo sapiens, 10 μM compound, 18 h after stimulation, read-out: THP1 ISG IRF3 −/−: fold increase of luciferase activity over background
# In short: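 PMA-differentiated (100 ng/ml) reporter cells carrying ISRE/ISG54 minimal promoter-driven secreted luciferase were stimulated with compounds at 5–20 μM (mostly 10 μM). Luciferase measured 18 h later and expressed as fold increase over untreated background, binned from "−" (<2.4-fold) to "+++++" (≥40-fold).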
# [3] = tested on: CXCL10 secretion by CT26 cells; assay: RIG-I dependent CXCL10 secretion by CT26 colon carcinoma cells (ELISA); type: cell-based, murine; settings: 10 μM compound, 24 h
# In short: (§1)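 Murine CT26 colon carcinoma cells, and CRISPR-generated RIG-I knockout CT26 cells, were seeded at 1×10^4 cells/well and grown 24 h at 37 °C, 5% CO2, then treated with compounds at 5 to 20 μM. CXCL10 in supernatants was measured by ELISA 24 h after stimulation.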
# [4] = tested on: RIG-I deficient CT26 RIG-1−/− cells; assay: CXCL10 secretion in RIG-I deficient CT26 RIG-1−/− cells (ELISA); type: cell-based, murine; settings: 10 μM compound, 24 h
# In short: as §1
# [5] = tested on: murine CT26 colon carcinoma cells; assay: Compound-induced immunogenic cell death: apoptosis (Annexin V+) by flow cytometry; type: cell-based; settings: 18 h after treatment, dose titration, FIG. 1A
# Excerpt: (§2) To determine if the RIG-I agonist compounds induce immunogenic cell death in cancer cells, induction of apoptosis and the translocation or of calreticulin (CRT) to the cell surface in murine CT26 colon carcinoma cells were evaluation. The translocation of CRT occurs as part of a specific RIG-I dependent danger-signaling system, and the presence of CRT on the cell membrane promotes tumor antigen uptake by the dendritic cells and leads to the induction of am antigen-specific T cell response
# (§3) The induction of apoptosis and the CRT translocation was measured by flow cytometry. […] Cells were harvested 18 h after treatment and then prepared for flow cytometry using an Annexin V staining kit (Biolegend) for quantification of apoptosis, an anti-CRT antibody (Abgent) for calreticulin translocation, and the Live/Dead-Violet staining kit (Thermofisher) for cell viability. Induction of apoptosis and translocation of calreticulin (CRT) to cell surface by live cells was determined by tri-color flow cytometry using FITC-labeled Annexin V, Live/Dead-Violet (LDV), and APC-anti-CRT. Apoptotic cells were defined as Annexin V^+ and calreticulin translocation to cell surface was quantified by mean fluorescent intensity (MFI) of calreticulin^+ live cells (CRT^+ LDV^−). […]
# [6] = tested on: murine CT26 colon carcinoma cells; assay: Compound-induced immunogenic cell death: calreticulin translocation to cell surface (MFI of CRT+ LDV− cells); type: cell-based; settings: 18 h after treatment, dose titration, FIG. 1B
# Excerpt: as §2, §3
structure (smiles),measurement,setting,value
"O=C(Nc1c(Cl)cccc1Cl)c1ccc2nc(NC(=O)c3cc4ccccc4cc3OCCCCN3CCOCC3)sc2c1 [Example 19, N-(2,6-dichlorophenyl)-2-{3-[4-(morpholin-4-yl)butoxy]naphthalene-2-amido}-1,3-benzothiazole-6-carboxamide]",fold induction at 10 µM,[1],5 to 9.9
same,fold induction at 10 µM,[2],< 2.4
same,CXCL10 secretion by CT26 cells,[3],++++ (“++++” indicates 800 to 1599 pg/mL)
same,CXCL10 secretion by CT26 RIG-I −/− cells,[4],− (“−” indicates less than 100 pg/mL)
same,induction of immunogenic cell death: apoptosis (Annexin V+),[5],induction of immunogenic cell death
same,induction of immunogenic cell death: calreticulin translocation to cell surface,[6],induction of immunogenic cell death
